Active and inactive are the calls of the source. No cut-off for these calls is given here.
How the values were obtained:
[1] = Cytotoxicity against human MMNK-1 cells assessed as inhibition of cell growth incubated for 48 hrs by MTT assay; format: toxicity, cell-based; settings: for IC50 at 48 h: MMNK-1 cells
KKU-M055 [2] = experiment: Cytotoxicity against human KKUM055 cells assessed as inhibition of cell growth incubated for 48 hrs by MTT assay; format: functional, cell-based; settings: for IC50: KKU-M055, 48 h
KKUM213 [3] = experiment: Cytotoxicity against human KKUM213 cells assessed as inhibition of cell growth incubated for 48 hrs by MTT assay; format: functional, cell-based; settings: KKU-213A
HeLa = experiment: Cytotoxicity against human HeLa cells assessed as inhibition of cell growth incubated for 72 hrs by MTT assay; format: functional, cell-based
KKUM213 [4] = experiment: Induction of apoptosis in human KKUM213 cells assessed as total apoptotic cells at 7 ug/ml incubated for 48 hrs by Annexin V-FITC/PI staining based flow cytometry analysis (reference value: 17.61%); format: functional, KKU-213A; settings: dose 7 µg/ml
[5] = Cytotoxicity against African green monkey Vero cells assessed as inhibition of cell growth incubated for 72 hrs by MTT assay; format: toxicity, cell-based; settings: African green monkey (Chlorocebus sabaeus)
KKUM213 [6] = experiment: Induction of apoptosis in human KKUM213 cells assessed as total apoptotic cells at 2 ug/ml incubated for 48 hrs by Annexin V-FITC/PI staining based flow cytometry analysis (reference value: 17.61%); format: functional, KKU-213A; settings: dose 2 µg/ml
KKU-M055 [7] = experiment: Induction of apoptosis in human KKUM055 cells assessed as total apoptotic cells at 7 ug/ml incubated for 48 hrs by Annexin V-FITC/PI staining based flow cytometry analysis (reference value: 22.11%); format: functional; settings: dose 7 µg/ml
KKU-M055 [8] = experiment: Induction of apoptosis in human KKUM055 cells assessed as total apoptotic cells at 2 ug/ml incubated for 48 hrs by Annexin V-FITC/PI staining based flow cytometry analysis (reference value: 22.11%); format: functional; settings: dose 2 µg/ml
A549 = experiment: Cytotoxicity against human A549 cells assessed as inhibition of cell growth incubated for 72 hrs by MTT assay; format: functional, cell-based; settings: A549, 72 h
PC-3 = experiment: Cytotoxicity against human PC-3 cells assessed as inhibition of cell growth incubated for 72 hrs by MTT assay; format: functional, cell-based; settings: PC-3, 72 h
KKU-M055 [9] = experiment: Induction of apoptosis in human KKUM055 cells assessed as total apoptotic cells at 2 ug/ml incubated for 48 hrs by Annexin V-FITC/PI staining based flow cytometry analysis (reference value: 16.44%); format: functional; settings: dose 2 µg/ml
KKU-M055 [10] = experiment: Induction of apoptosis in human KKUM055 cells assessed as total apoptotic cells at 7 ug/ml incubated for 48 hrs by Annexin V-FITC/PI staining based flow cytometry analysis (reference value: 16.44%); format: functional; settings: dose 7 µg/ml
KKUM213 [11] = experiment: Induction of apoptosis in human KKUM213 cells assessed as total apoptotic cells at 2 ug/ml incubated for 48 hrs by Annexin V-FITC/PI staining based flow cytometry analysis (reference value: 18.14%); format: functional, KKU-213A; settings: dose 2 µg/ml
KKUM213 [12] = experiment: Induction of apoptosis in human KKUM213 cells assessed as total apoptotic cells at 7 ug/ml incubated for 48 hrs by Annexin V-FITC/PI staining based flow cytometry analysis (reference value: 18.14%); format: functional, KKU-213A; settings: dose 7 µg/ml

SMILES	Activity ([1]; mmnk-1, 48 h, time 48 hrs)	IC50 (KKU-M055 [2]) [µM]	IC50 (KKUM213 [3]) [µM]	IC50 at 48 h [1] [µM]	IC50 (HeLa) [µM]	Activity (KKUM213 [4]) [%]	IC50 at 72 h [5] [µM]	Activity (KKUM213 [6]) [%]	Activity (KKU-M055 [7]) [%]	Activity (KKU-M055 [8]) [%]	IC50 (A549) [µM]	IC50 (PC-3) [µM]	Activity (KKU-M055 [2])	Activity (KKUM213 [3])	Activity (KKU-M055 [9]) [%]	Activity (KKU-M055 [10]) [%]	Activity (KKUM213 [11]) [%]	Activity (KKUM213 [12]) [%]
CCCCCCCCCCCCCCC[C@@H](O)[C@@H]1C=CC(=O)O1	Non-Toxic	26.3	51.7	–	–	–	–	–	–	–	–	–	–	–	–	–	–	–
CCCCCCCCCCCCCCC[C@H]1CC=CC(=O)O1	–	19.8	18.2	39.3	12.2	19.95	12.2	20.64	43.4	21.29	12.2	12.2	–	–	–	–	–	–
CCCCCCCCCCCCCCC[C@@H]1C[C@@H]2C[C@@H](CC(=O)O2)O1	–	–	–	–	39.1	–	39.1	–	–	–	39.1	39.1	inactive	inactive	–	–	–	–
CCCCCCCCCCCCCCC[C@@H]1OC(=O)C=C[C@@H]1O	–	25.9	17	57.4	3.7	–	3.7	–	–	–	3.7	3.7	–	–	59	86	28.97	69.22
CCCCCC/C=C\CCCCCCC[C@H]1CC=CC(=O)O1	–	31	22.5	52.9	11.2	–	21.2	–	–	–	16.9	23.6	–	–	–	–	–	–
